According to patent US20220233133A1, “HUMAN TACTILE PREPULSE […]” (President and Fellows of Harvard College, priority 2019, published 2022):

Key:
[1] = test system: Shank3 conditional mutant mice; assay: Tactile PPI performance in Shank3 conditional mutant mice; assay type: in vivo; settings: 30 minutes following administration of 2 mg/kg, versus saline
Description: (§1) Tactile PPI performance in Mecp2 or Shank3 conditional mutant mice, and their control littermates, 30 minutes following administration of either saline or 2 mg/kg compound 5.

[2] = test system: Mecp2 conditional mutant mice; assay: Tactile PPI performance in Mecp2 conditional mutant mice; assay type: in vivo; settings: 30 minutes following administration of 2 mg/kg, versus saline
Description: as §1

[3] = test system: ASD mouse models; settings: range of ASD mouse models (Orefice et al., 2019, Cell 178, 867-886); cited from earlier work

With `NC1C=C(C(=O)O)CCC1` (stereo not drawn) [compound 5, 3-aminocyclohex-1-ene-1-carboxylic acid] the “hairy skin hypersensitivity (tactile PPI performance)” value [1] was “reduces hairy skin hypersensitivity” and the “hairy skin hypersensitivity (tactile PPI performance)” value [2] was “reduces hairy skin hypersensitivity”.
In the case of `Nc1[nH]c(=O)nc2nc[nH]c12` [isoguanine], the anxiety [3] is listed as “useful to reduce”.
